Tests used:
Assay type in all cases: in vivo, dog
[1] = tested on: Adult dogs, separation behavior; assay: Example 3: behavior scores in dogs after ten consecutive oral doses of compound of Formula 2 vs. placebo, cross-over; conditions: 5 mg/kg oral BID, 10 doses
Method: Adult dogs received ten consecutive oral doses of a compound of Formula 2 at 5 mg/kg BID or placebo in a cross-over design and effects on behavior were determined beginning one-hour post-dose.
Appropriate amounts of the compound of Formula 2 were weighed and placed in capsules. Capsules were back-filled with dextrose.
Capsules were administered by placing them in the back of the throat and allowing the dogs to swallow. On the day of behavior testing, dogs were fasting at dosing.
Dogs were divided equally into two treatment groups. Treatment Group 1 received 10 consecutive oral doses of the compound of Formula 2 BID at 5 mg/kg and Treatment Group 2 received 10 consecutive oral dextrose placebos BID. At the conclusion of the first half of the study, the protocol was repeated and dogs in Treatment Group 1 received 10 consecutive oral dextrose placebos BID and dogs in Treatment Group 2 received 10 consecutive oral doses of the compound of Formula 2 BID at 5 mg/kg.
Dogs began compound dosing at 1830 and continued for 10 consecutive BID doses. The final dose (dose #10) occurred the morning of testing, one hour prior to the start. Dogs were tested in three 15-minute testing phases in which behavior was scored every 5 minutes. Dogs were videotaped during the testing period.

[2] = tested on: Adult dogs with spontaneous anxiety to isolation and/or unfamiliar humans; assay: Example 1: anxiety behaviors of dogs during 15-minute separation phase, compound of Formula 1 vs. placebo, double-blind crossover; conditions: for Hyperactivity Mean, Geometric Mean Time / Vocalization Mean, Geometric Mean Time: 0.1 mg/kg SC once daily, Separation Phase, vs. placebo
Method: To evaluate the anxiolytic effects of a compound of Formula 1 vs. placebo after seven and twenty-one days of parenteral dosing at 0.1 mg/kg SID, the following procedure was followed.
Adult dogs with spontaneous anxiety to isolation and/or unfamiliar humans were treated for twenty-one consecutive days with the compound of Formula 1 or a placebo control. Dogs were tested after seven and twenty-one days of dosing. “Day 0” was used to identify the initial day of dosing. The study was conducted using a double-blind crossover design. Treatment periods were 21 days in duration, with a 28 day washout period between treatments. Dogs were randomly assigned to treatment groups such that those receiving compound at the first replicate received placebo on the second replicate. The placebo treatments served as the negative control.
All study participants were blinded to treatment groups. The compound of Formula 1 was administered at a dose of 0.1 mg/kg. The volume of vehicle control used for the placebo treatments was equivalent to the calculated volume of test compound that would have been administered had the animal been receiving drug. All test articles were administered by subcutaneous injection once daily.
On the day of testing, each dog was placed in a cage in an isolated room for 15 minutes. A hidden observer timed any anxious behavior. Animals were tested on dosing day 6 and day 20, starting 2 hours after the dose of the day.
Abnormal anxiety behaviors were studied. Observations were made on two different anxiety behaviors during a 15-minute separation phase. These behaviors are vocalization (barking, crying, growling) and hyperactivity (jumping, pacing, circling).

[3] = tested on: dogs, anxiety associated with separation and with novel sight and sound stimuli; assay: Example 2: canine anxiety model, separation phase and stimulation phase, various dosages of compound of Formula 1
Method: The present invention also concerns a method for testing compounds for anxiolytic effect in dogs. The model is designed to induce separation anxiety as well as anxiety due to novel visual and auditory stimuli. To determine whether a test compound has an anxiolytic effect in dogs, separation anxiety and anxiety associated with novel sight and sound stimuli are measured both with and without administration of the test compound. In one preferred embodiment, observations are made on five different anxiety behaviors during a 15-minute separation phase and a 15-minute stimulation phase. These anxiety behaviors are vocalization (barking, crying, growling); hyperactivity (jumping, pacing, circling); destruction (chewing, pawing, digging); salivation; and tremor. […] In addition to direct observation, dogs are videotaped during testing for documentation of behaviors. In one preferred embodiment, a dog is removed from a group pen and placed in an isolation cage. A tester, positioned behind a screen out of view, starts a timer for 15 minutes and a video recorder. […] At the end of the separation phase, the timer is re-set to 15 minutes and a child-size doll mounted on a remote controlled car is driven around the pen continuously. After 10 minutes, the doll and car are driven behind the screen and a child's fazer gun with a variety of sounds is continually activated for 5 minutes. At the end of the stimulation phase, the accumulated time for each behavior is recorded and the video recorder stopped. The dog is removed from the isolation cage and returned to the group pen. Preferably, a complete cross-over study design with test compound and placebo is used. Each treatment period is 21 days in length. Study “day 0” is used to designate the initial day of dosing. Anxiety testing is conducted on study days 6 and 20 within each period. Animals are allocated to treatment group, sequence, pen and evaluation order using a randomization plan. Dogs remain within the same sequence during progression of the cross-over phases of the study so that all possible treatment orders are evenly represented. Preferably, “day 0” is staggered such that 3-6 dogs are evaluated per day. Treatment administration is adjusted on testing days such that each animal is tested at the predicted Cmax for the test compound. Anxiety testing is preferably conducted between 11 AM and 4 PM to account for time-of-day variations in behavior. Animals are fed at the conclusion of testing. A three-week washout is observed between periods. Various dosages of the compound of Formula 1 were tested to determine an optimal dose. Anxiety associated with separation and with novel sight and sound stimuli was measured. Observations are made on two different anxiety behaviors during a 15-minute separation phase and a 15-minute stimulation phase. These behaviors are vocalization (barking, crying, growling) and hyperactivity (jumping, pacing, circling). […] In addition to direct observation, dogs are videotaped during testing for documentation of behaviors. The dog is removed from a group pen and placed in an isolation cage in an adjacent room. The tester, positioned behind a screen out of view, starts a timer for 15 minutes and the video recorder. […] At the end of the separation phase, the timer is re-set to 15 minutes and a child-size doll mounted on a remote controlled car is driven around the pen continuously. After 10 minutes, the doll and car are driven behind the screen and a child's fazer gun with a variety of sounds is continually activated for 5 minutes. At the end of the stimulation phase, the accumulated time for each behavior is recorded and the video recorder stopped. The dog is removed from the isolation cage and returned to the group pen.

[4] = 0.03 mg/kg, Separation, Day 6, vs. Day −1
[5] = 0.03 mg/kg, Separation, Day 20, vs. Day −1
[6] = 0.03 mg/kg, Stimulation, Day 6, vs. Day −1
[7] = 0.03 mg/kg, Stimulation, Day 20, vs. Day −1
[8] = 0.1 mg/kg, Separation Phase, Day 6, vs. placebo
[9] = 0.1 mg/kg, Separation Phase, Day 20, vs. placebo
[10] = 0.1 mg/kg, Separation, Day 6, vs. Day −1
[11] = 0.1 mg/kg, Separation, Day 20, vs. Day −1
[12] = 0.1 mg/kg, Stimulation Phase, Day 6, vs. placebo
[13] = 0.1 mg/kg, Stimulation Phase, Day 20, vs. placebo
[14] = 0.1 mg/kg, Stimulation, Day 6, vs. Day −1
[15] = 0.1 mg/kg, Stimulation, Day 20, vs. Day −1
[16] = 0.3 mg/kg, Separation, Day 6, vs. Day −1
[17] = 0.3 mg/kg, Separation, Day 20, vs. Day −1
[18] = 0.3 mg/kg, Stimulation, Day 6, vs. Day −1
[19] = 0.3 mg/kg, Stimulation, Day 20, vs. Day −1
[20] = 1 mg/kg, Separation Phase, Day 6, vs. placebo
[21] = 1 mg/kg, Separation Phase, Day 20, vs. placebo
[22] = 1 mg/kg, Stimulation Phase, Day 6, vs. placebo
[23] = 1 mg/kg, Stimulation Phase, Day 20, vs. placebo

COc1ccc(OC(F)(F)F)cc1CN[C@H]1CCCN[C@H]1c1ccccc1 [Compound of Formula 2]
Separation Hyperactivity 0-15 min, behavior score as estimated duration of time ([1]; Dog ID 70954): 2 s | Separation Vocalization 0-15 min, behavior score as estimated duration of time ([1]; Dog ID 70954): 0 s | Separation Hyperactivity 0-15 min, behavior score as estimated duration of time ([1]; Dog ID 215155): 2 s | Separation Vocalization 0-15 min, behavior score as estimated duration of time ([1]; Dog ID 215155): 12 s | Separation Hyperactivity 0-15 min, behavior score as estimated duration of time ([1]; Dog ID 219622): 30 s | Separation Vocalization 0-15 min, behavior score as estimated duration of time ([1]; Dog ID 219622): 22 s | Separation Hyperactivity 0-15 min, behavior score as estimated duration of time ([1]; Dog ID 227641): 2 s | Separation Vocalization 0-15 min, behavior score as estimated duration of time ([1]; Dog ID 227641): 2 s | Separation Hyperactivity 0-15 min, behavior score as estimated duration of time ([1]; Dog ID 234923): 2 s | Separation Vocalization 0-15 min, behavior score as estimated duration of time ([1]; Dog ID 234923): 0 s | Separation Hyperactivity 0-15 min, behavior score as estimated duration of time ([1]; Dog ID 240893): 6 s | Separation Vocalization 0-15 min, behavior score as estimated duration of time ([1]; Dog ID 240893): 0 s | Separation Hyperactivity 0-15 min, behavior score as estimated duration of time ([1]; Dog ID 2943450): 18 s | Separation Vocalization 0-15 min, behavior score as estimated duration of time ([1]; Dog ID 2943450): 30 s | Separation Hyperactivity 0-15 min, behavior score as estimated duration of time ([1]; Dog ID HIHMFU): 12 s | Separation Vocalization 0-15 min, behavior score as estimated duration of time ([1]; Dog ID HIHMFU): 0 s | Separation Hyperactivity 0-15 min, behavior score as estimated duration of time ([1]; Mean of 8 dogs): 9.25 s | Separation Vocalization 0-15 min, behavior score as estimated duration of time ([1]; Mean of 8 dogs): 8.25 s | Hyperactivity Mean, Geometric Mean Time ([2]; Day 6): 24.1 s | Vocalization Mean, Geometric Mean Time ([2]; Day 6): 29.0 s | Hyperactivity Mean, Geometric Mean Time ([2]; Day 20): 19.1 s | Vocalization Mean, Geometric Mean Time ([2]; Day 20): 25.5 s

COc1ccc(C(C)(C)C)cc1CN[C@H]1C2CCN(CC2)[C@H]1C(c1ccccc1)c1ccccc1 [Compound of Formula 1, (2S.3S) (2-Benzhydryl-1-aza-bicyclo[2.2.2]oct-3-yl)-(5-tert-butyl-2-methoxy-benzyl)-amine]
Hyperactivity Mean, Geometric Mean Time [3, 4]: 19.4 s | Vocalization Mean, Geometric Mean Time [3, 4]: 10.6 s | Hyperactivity Mean, Geometric Mean Time [3, 5]: 20.1 s | Vocalization Mean, Geometric Mean Time [3, 5]: 12.1 s | Hyperactivity Mean, Geometric Mean Time [3, 6]: 38.6 s | Vocalization Mean, Geometric Mean Time [3, 6]: 24.5 s | Hyperactivity Mean, Geometric Mean Time [3, 7]: 28.2 s | Vocalization Mean, Geometric Mean Time [3, 7]: 35.6 s | Hyperactivity Mean, Geometric Mean Time [3, 8]: 24.1 s | Vocalization Mean, Geometric Mean Time [3, 8]: 29.0 s | Hyperactivity Mean, Geometric Mean Time [3, 9]: 19.1 s | Vocalization Mean, Geometric Mean Time [3, 9]: 25.5 s | Hyperactivity Mean, Geometric Mean Time [3, 10]: 24.7 s | Vocalization Mean, Geometric Mean Time [3, 10]: 15.5 s | Hyperactivity Mean, Geometric Mean Time [3, 11]: 14.8 s | Vocalization Mean, Geometric Mean Time [3, 11]: 9.1 s | Hyperactivity Mean, Geometric Mean Time [3, 12]: 46.7 s | Vocalization Mean, Geometric Mean Time [3, 12]: 35.3 s | Hyperactivity Mean, Geometric Mean Time [3, 13]: 51.2 s | Vocalization Mean, Geometric Mean Time [3, 13]: 26.4 s | Hyperactivity Mean, Geometric Mean Time [3, 14]: 48.8 s | Vocalization Mean, Geometric Mean Time [3, 14]: 36.8 s | Hyperactivity Mean, Geometric Mean Time [3, 15]: 28.4 s | Vocalization Mean, Geometric Mean Time [3, 15]: 24.7 s | Hyperactivity Mean, Geometric Mean Time [3, 16]: 49.7 s | Vocalization Mean, Geometric Mean Time [3, 16]: 20.9 s | Hyperactivity Mean, Geometric Mean Time [3, 17]: 39.1 s | Vocalization Mean, Geometric Mean Time [3, 17]: 18.2 s | Hyperactivity Mean, Geometric Mean Time [3, 18]: 43.1 s | Vocalization Mean, Geometric Mean Time [3, 18]: 15.9 s | Hyperactivity Mean, Geometric Mean Time [3, 19]: 41.9 s | Vocalization Mean, Geometric Mean Time [3, 19]: 19.2 s | Hyperactivity Mean, Geometric Mean Time [3, 20]: 23.3 s | Vocalization Mean, Geometric Mean Time [3, 20]: 5.8 s | Hyperactivity Mean, Geometric Mean Time [3, 21]: 16.8 s | Vocalization Mean, Geometric Mean Time [3, 21]: 6.9 s | Hyperactivity Mean, Geometric Mean Time [3, 22]: 22.7 s | Vocalization Mean, Geometric Mean Time [3, 22]: 6.5 s | Hyperactivity Mean, Geometric Mean Time [3, 23]: 36.0 s | Vocalization Mean, Geometric Mean Time [3, 23]: 7.4 s | most efficacious dosage in dogs among those dosages tested ([3]; SC, dosages tested 0.03, 0.1, 0.3, 1 mg/kg): 0.1 mg/kg | effectiveness at treating vocalization and hyperactivity resulting from separation ([2]; 0.1 mg/kg SC, compared with placebo): more effective than placebo
